In patent US6310247A, “7-aryl-6(Z)-heptatrienoic acid retinamides” (Hoffmann-LA Roche Inc., priority 1999, dated 2001):
Read-outs that look alike come from different tables or passages of the source.

Assays:
MDA-435 cells = test: Apoptosis: cell death detection by ELISA, MDA-435; format: cell-based, human; settings: for fold induction at 1 µM / fold induction at 3.3 µM / fold induction at 10 µM: Homo sapiens, read-out: Fold induction of apoptosis compared to no drug control
Experimental: ER- breast carcinoma, human (MDA-435) obtained from Dr. Janet Price, MDA Cancer Center, Houston, Tex., were grown in Gibco's RPMI 1640 media supplemented with sodium pyruvate, 10% FBS and 13 ng/mL gentamicin. Cells were incubated at 37° C., 4.5% CO2 and 95.5% humidified air.
(§1) 2. Apoptosis: Cell death detection by ELISA:
(§2) Compounds of formula 1 were tested for the ability to cause apoptosis as follows:
(§3) Cells and media were collected, cells were pelleted, resuspended in 100 μl lysis buffer (50 mM Tris-Cl (pH=8.0), 20 mM EDTA, 1% NP-40e) and incubated 30 minutes at 4° C. to lyse. Cell debris was spun down and an aliquot (30 μl) of the […] was removed for protein determination and stored at -20° C. An additional 280 μl of lysis buffer, was added, mixed thoroughly and spun down at 14,000 RPM for 10 minutes at 4° C. An aliquot was removed (180 μl) and the sample was stored at -20° C. until testing.
(§4) A commercially available apoptosis detection kit, obtained from Boehringer Mannheim (Cat. No. 1544-674), was used as per the directions provided with the kit (Cell Death Detection ELISA). However, the protocol was modified in that a 1:40 to 1:100 dilution of sample was prepared, rather than the recommended 1:10 dilution, due to the increase in cell number used to prepare the sample extract and the subsequent increase in ELISA reactivity. The assay measures apoptosis by quantifying the amount of nucleosomal fragmentation from the extracts of cells treated with the test compounds (samples). These nucleosomal fragments, generated by the activation of endonucleases, are a known downstream effector of apoptosis. Antihistone antibodies are used to fix any nucleosomal fragments in the sample to the well of the microtiter plates. The sample is then incubated with anti-DNA antibodies conjugated to peroxidase and subsequently incubated with the peroxidase substrate, ABTS. The resulting colorimetric change is measured spectrophotometrically at 405/490nm.
(§5) The total protein content of each sample was determined for the purpose of normalizing the ELISA values to amount of sample loaded. Microplate assay protocol described in the instruction manual, for (Biorad DC Assay, Cat.#500-0116) section 5.2. The protein concentrations were calculated based upon a linear regression curve.
(§6) d) ELISA assay calculations
(§7) Relative ELISA O.D. readings are determined by subtracting the ELISA plate background O.D. value. No drug control O.D. value (lysis buffer only) was subtracted from sample O.D. value. A correction coefficient (CC), based on the sample protein concentration compared to no drug control, was determined to correct the sample O.D. following subtraction of the background O.D. (BCS O.D.). The fold increase over no drug control is calculated and normalized to the total protein concentration of the samples by multiplying against the correction coefficient.
(§8) To determine the fold increase in ELISA O.D., obtain the following O.D. measurements:
(§9) ELISA plate background--lysis buffer only (EPB);
(§10) no drug treated control--cell sample treated with DMSO (NDT);
(§11) drug treated sample--cell sample treated with a compound of formula 1 (DT) Subtract EPB from NDT (NDT-EPB) and DT (DT-EPB). The fold increase of the treated over the control is then (DT-EPB)/(NDT-EPB).
(§12) To determine the total protein concentration of the samples, obtain the total protein concentration in mg/ul calculated using standard linear regression formula (y=mx+b) based on BSA standards. B=ELISA background. Protein concentration (PC)(mg/ml)=(sample absorbance-b)/x.
(§13) Correction coefficient (cc) is (NDT)(PC)/(DT)(PC).
(§14) Determine fold increase of ELISA (FT) normalized to total PC:
(§15) nDT is DT×cc (which is DT O.D. normalized to PC)
(§16) nNDT is NDT×cc (which is NDT O.D. normalized to PC)
(§17) FI normalized to PC is nDT/nNDT.

RKO cells = test: Apoptosis: cell death detection by ELISA, RKO (colorectal carcinoma); format: cell-based, human; settings: for fold induction at 1 µM / fold induction at 3.3 µM / fold induction at 10 µM: Homo sapiens, RKO, read-out: Fold induction of apoptosis compared to no drug control
Experimental: Colorectal carcinoma, human (RKO) obtained from Dr. Bernie Vogelstein, were grown in Gibco's Delbecco Minimum Essential media (DMEM), high glucose, supplemented with sodium pyruvate, 10% FBS and 13 ng/mL gentamicin. Cells were incubated at 37° C., 4.5% CO2 and 95.5% humidified air.
as §1, §2, §3, §4, §5, §6, §7, §8, §9, §10, §11, §12, §13, §14, §15, §16, §17

ZR-75-1 cells = test: Cell growth inhibition: MTT assay, ZR-75-1 (ER+ breast carcinoma); format: cell-based; settings: Homo sapiens, read-out: % inhibition of cell growth compared to no drug control
Experimental: ER+ breast carcinoma, human (ZR-75-1) obtained from ATCC (CRL 1500), were grown in Gibco's RPMI 1640 media supplemented with sodium pyruvate, 10% FBS and 13 ng/mL gentamicin. Cells were incubated at 37° C., 4.5% CO2 and 95.5% humidified air.
1. Cell growth inhibition: MTT Assay
The compounds of formula 1 were tested for ability to inhibit cell growth using the standard MTT assay, a tetrazolium-based assay which measures the viability of cells in culture. Cells were harvested upon reaching 70-80% confluency and pelleted. The cells were then resuspended in medium in which FBS was replaced with Hyclone's Charcoal/Dextran stripped FBS, and seeded (2 mL/well) into 6-well plates (Corning) at a density allowing for linear growth over a four day assay period. Compounds of formula 1 (10 mM stock in dimethylsulfoxide (DMSO)) were added 18-24 hours post-seeding. Compound dilutions were prepared in the appropriate growth media and added to the cells for final concentrations of 10, 3.3 and 1 μM in 0.1% DMSO. At 24, 48 and 72 hr. time points, MTT (3-[4,5-dimethylthiazol-2-yl-2,5-diphenyltetrazolium bromide) stock solution (5mg/mL in 1 PBS) was added to the cells plates (625 μL/well) which were then incubated for 2.5 hours. Liquid was aspirated from the wells and 1 mL/well of 95% ethanol was added to solubilize the formazan reaction product. The plates were shaken (Bellco Mini-Orbital Shaker) for 15 minutes. The solubilized formazan was then transferred (50 μls) into a 96-well plate and the optical densities (OD) were measured (Bio-Tek Microplate Reader) at 570 nm and reference wavelength of 660 nm. Percentage of inhibition of cell growth was calculated according to the following formula: [formula]

C/C(=C/C=C/C(C)=C/C(=O)Nc1ccc(O)cc1)c1cc(C(F)(F)F)cc(C(F)(F)F)c1 [N-(4-hydroxyphenyl)-(2E,4E,6Z)-7-[3,5-bis(trifluoromethyl)phenyl]-3,7-dimethyl-2,4,6-heptatrienamide]
fold induction at 1 µM (MDA-435 cells; MDA435, 24 h, 24 hrs): 3
fold induction at 3.3 µM (MDA-435 cells; MDA435, 24 h, 24 hrs): 6
fold induction at 10 µM (MDA-435 cells; MDA435, 24 h, 24 hrs): 6
fold induction at 1 µM (MDA-435 cells; MDA435, 48 h, 48 hrs): 3
fold induction at 3.3 µM (MDA-435 cells; MDA435, 48 h, 48 hrs): 10
fold induction at 10 µM (MDA-435 cells; MDA435, 48 h, 48 hrs): 16
fold induction at 1 µM (MDA-435 cells; MDA435, 72 h, 72 hrs): 4
fold induction at 3.3 µM (MDA-435 cells; MDA435, 72 h, 72 hrs): 12
fold induction at 10 µM (MDA-435 cells; MDA435, 72 h, 72 hrs): 34
Induction of apoptosis (in words) (MDA-435 cells; after 24 hours): induces significant apoptosis
fold induction at 1 µM (RKO cells; 24 hrs): 2
fold induction at 3.3 µM (RKO cells; 24 hrs): 14
fold induction at 10 µM (RKO cells; 24 hrs): 21
fold induction at 1 µM (RKO cells; 48 hrs): 4
fold induction at 3.3 µM (RKO cells; 48 hrs): 5
fold induction at 10 µM (RKO cells; 48 hrs): 23
fold induction at 1 µM (RKO cells; 72 hrs): 1
fold induction at 3.3 µM (RKO cells; 72 hrs): 1
fold induction at 10 µM (RKO cells; 72 hrs): 15
Induction of apoptosis (in words) (RKO cells; after 24 hours): induces significant apoptosis
inhibition at 1 µM (ZR-75-1 cells; 24 hours): 1%
inhibition at 3.3 µM (ZR-75-1 cells; 24 hours): 14%
inhibition at 10 µM (ZR-75-1 cells; 24 hours): 21%
inhibition at 1 µM (ZR-75-1 cells; 48 hours): 0%
inhibition at 3.3 µM (ZR-75-1 cells; 48 hours): 18%
inhibition at 10 µM (ZR-75-1 cells; 48 hours): 30%
inhibition at 1 µM (ZR-75-1 cells; 72 hours): 13%
inhibition at 3.3 µM (ZR-75-1 cells; 72 hours): 56%
inhibition at 10 µM (ZR-75-1 cells; 72 hours): 64%
